Patent publication US8877795B2, “Identification of stabilizers of multimeric proteins” (The Board of Trustees of the Leland Stanford Junior …, priority 2010, dated 2014)
Like-named read-outs stand apart in the source and are kept apart here. One block for each molecule: values may come before it.

Experiments:
TTR [1] = target: T1, TTR (Homo sapiens (Human), UniProt P02766); test: Determination of IC50 using the FP assay (HTS format, probe 5); type: binding; settings: read-out: IC50 (compound concentration that resulted in 50% decrease in the FP signal); dose-response FP assay in duplicate
WT TTR = WT TTR (Homo sapiens (Human), UniProt P02766); test: Acid-mediated fibril formation assay for TTR amyloidogenesis (turbidity); settings: TTR 3.6 μM; for % fibril formation / TTR aggregation inhibition (in words): ligand 7.2 μM, 72 h; for % fibril formation: pH 4.4, 37° C., no ligand = 100%; for inhibition of fibril formation: substoichiometric: ligand 3.0 μM, monitored over 5 days
Method: The efficacy of each compound to inhibit TTR amyloidogenesis was determined by monitoring the turbidity of TTR aggregation at acidic pH, as described previously. […] The final 1 ml sample mixture was vortexed, then incubated at 37° C. for 72 hours, after which the sample was vortexed and the optical density was measured at 400 nm on a Beckman DU® 640 spectrophotometer. […] The optical density was also corrected for the absorption of all test compounds in the absence of TTR. […] The optical density (400 nm) was measured as described above at 0, 24, 48, 72, 96, and 120 hours. All assays were performed in triplicate and the average values obtained are presented.
TTR was preincubated with small molecules for 30 min at room temperature before amyloidosis was initiated (lowering pH to 4.4, incubation at 37° C.). […] The amyloidogenesis inhibition efficacy of each compound was determined by monitoring the turbidity of TTR (400 nm). The extent of TTR amyloidogenesis was quantitated at a fixed time point (72 h). All amyloid fibril formation data was normalized to TTR amyloidogenesis in the absence of inhibitor, assigned to be 100% fibril formation. […] The aggregation inhibition was monitored over 5 days using the acid-mediated fibril formation assay (compared to 3 days for the fixed time point described above) (FIG. 5B).

[2] = test system: V122I TTR cytotoxicity in human AC16 cardiac cells; test: Inhibition of V122I TTR cytotoxicity in AC16 cells; settings: TTR and ligand 8 μM, 24 h
Method: (§1) The human cardiac cell line AC16 was maintained in DMEM:F12 (1:1) supplemented with 10% FBS, 1 mM Hepes buffer, 2 mM L-glutamine, 100 units/mL penicillin and 100 μg/mL streptomycin. Two to 4-day-old cultures (˜70% confluent) were used for the experiments.
(§2) Recombinant WT TTR purified in the cold in HBSS (Mediatech, Manassas, Va.) was used as a cytotoxic insult to IMR-32 cells and the amyloidogenic V122I TTR was used as cytotoxic insult to cardiac AC16 cells. Candidate compounds (16 mM in DMSO) were diluted 1:1000 with WT TTR or V122I TTR (16 mM in HBSS, filter sterilized) or with HBSS only. The mixtures were vortexed and incubated for 24 h at 4° C. WT TTR or V122I TTR (16 mM in HBSS) containing the same amount of DMSO than TTR/candidate compound mixtures was prepared in parallel and incubated under the same conditions.
(§3) The neuroblastoma IMR-32 and the cardiac AC16 cells were seeded in black wall, clear bottom, tissue culture treated 96-well plates (Costar) at a density of 6,000 cells/well and 250 cells/well, respectively in Opti-mem supplemented with 5% FBS, 1 mM Hepes buffer, 2 mM L-glutamine, 100 units/mL penicillin and 100 μg/mL streptomycin, 0.05 mg/mL CaCl2 and incubated overnight at 37° C. The medium was then removed and replaced immediately by the TTR/compound or HBSS previously diluted 1:1 in Opti-mem supplemented with 0.8 mg/mL BSA, 2 mM Hepes buffer, 4 mM L-glutamine, 200 units/mL penicillin, 200 μg/mL streptomycin and 0.1 mg/mL CaCl2. The cells were incubated 24 h at 37° C. after which cell viability was measured.
(§4) Cell viability of the cells treated with TTR or TTR/candidate compound was evaluated by a resazurin reduction assay. Briefly, 10 μL/well of resazurin (500 mM, PBS) was added to each well and incubated for 2-3 h at 37° C. Viable cells reduce resazurin to the highly fluorescent resorufin dye, which is quantitated in a multiwell plate reader (Ex/Em 530/590 nm, Tecan Safire2, Austria). Cell viability was calculated as percentage of fluorescence relative to cells treated with vehicle only (100% viability) after subtraction of blank fluorescence (wells without cells). All experimental conditions were performed at least in six replicates. Averages and SEM corresponding to 2 independently performed experiments were calculated.
(§5) The compounds under study were pre-incubated with WT TTR or V122I TTR for 24 h at 4° C. at equimolar concentrations (8 μM) and added to IMR-32 cells or AC16 cells, respectively. Cell viability was measured after 24 h by a resazurin reduction assay. […] The percentage of viable cells was calculated relative to cells treated with vehicle only (cell culture media and DMSO)—which were assigned to be 100% viable.

[3] = test system: WT TTR cytotoxicity in human IMR-32 neuroblastoma cells; test: Inhibition of WT TTR cytotoxicity in IMR-32 cells; settings: TTR and ligand 8 μM, 24 h
Method: as §1, §2, §3, §4, §5

TTR [4] = target: T1, TTR; settings: read-out: Kd (reported affinity for TTR); cited from earlier work
TTR [5] = target: T1, TTR; test: Fluorescence polarization displacement assay (probe 5 displaced from TTR); type: binding; settings: probe 5 100 nM, TTR 200 nM
Method: The affinity of test compounds to TTR was determined as follows. […] The samples were allowed to equilibrate by agitation for 20 min at room temperature and the fluorescence polarization was measured as described above. The data were fit to the following equation [y=(A−D)/(1+(x/C)^B)+D] where A=maximum FP signal, B=slope, C=apparent binding constant (Kapp), and D=minimum FP signal. The apparent binding constant was reported as mean for triplicate experiments and the best data fit was determined by R^2 value.

human wild type TTR = human wild type TTR (Homo sapiens (Human), UniProt P02766); test: Isothermal titration calorimetry (ITC) of ligands against TTR; type: binding; settings: for TΔS binding entropy / ΔG binding free energy / ΔH binding enthalpy: ITC; for Kd: TTR 2 μM titrated with ligand 25 μM
Method: Calorimetric titrations were carried out on a VP-ITC calorimeter (MicroCal, Northhampton, Mass.). […] Prior to each titration, all samples were degassed for 10 minutes. The initial injection of 3.0 μL was followed by 30 injections of 8.0 μL each (25° C.) to the point that TTR was fully saturated with ligand. Integration of the thermogram after subtraction of blanks yielded a binding isotherm that was analyzed with MicroCal Origin 5.0 software.

[6] = target: wild type biotinylated TTR (Homo sapiens (Human), UniProt P02766); test: Surface plasmon resonance (SPR) assay for TTR-ligand interaction; type: binding
Method: To an ice-cold solution of TTR (20 μM) in PBS was added EZ-Link Sulfo-NHS-LC-Biotin at a ratio of ˜2:1 (biotin:TTR) (minimal biotinylation) and the solution was incubated at room temperature. After 1 hour, un-reacted biotin was removed by passing the sample over a fast (FPLC) desalting column (Superdex™ 75) equilibrated with PBS.
SPR measurements were performed at 25° C. using a Biacore T100 (GE Healthcare) instrument equilibrated in 1% DMSO in PBS as a running buffer. After pretreatment of the streptavidin-coated chip (Sensor Chop SA, Biacore), ˜4000 RU biotinylated TTR was immobilized on one channel leaving the second flow channel as a blank (streptavidin alone) control. For binding measurements, HTS hits were diluted in running buffer (1% DMSO/PBS) and different dilution series were flowed over the chip at 50 μL/min ([…], 600 s wash). A zero concentration sample was used as a negative control. The kinetic data was fitted to a one-to-one binding model using Biacore T100 evaluation software.

TTR [7] = target: T1, TTR; test: Fluorescence polarization saturation binding experiment
Method: The binding of probe 5 for TTR was evaluated as follows. […] The samples were allowed to equilibrate by agitation for 20 min at room temperature. Fluorescence polarization (excitation λ 485 nm, emission λ 525 nm, Cutoff λ 515 nm) measurements were taken using SpectraMax M5 Microplate Reader (Molecular Devices). […] Nonspecific FP, produced by the free fluorescent probe 5 as well as by binding of 5 to the plate, was equal to 70±10 mP.

IL-2 = IL-2 (Homo sapiens (Human), UniProt P60568); settings: cited from earlier work
[8] = read-out: FP Kapp (apparent binding constant)
[9] = 25° C., one-to-one binding model, read-out: Kd (ITC)

Sequence of IL-2 (P60568 21-153): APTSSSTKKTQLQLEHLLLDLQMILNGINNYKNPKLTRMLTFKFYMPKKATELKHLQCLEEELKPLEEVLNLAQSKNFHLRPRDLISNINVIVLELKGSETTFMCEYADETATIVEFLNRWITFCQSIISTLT

Molecule: O=[N+]([O-])c1cc(O)c(O)c([N+](=O)[O-])c1 [3,5-dinitrocatechol, reference compound]
- prevention of V122I TTR-induced cytotoxicity (in words) [2]: poor inhibitor
- prevention of WT TTR-induced cytotoxicity (in words) [3]: poor inhibitor
- TTR aggregation inhibition (in words) (WT TTR): potent aggregation inhibitors

Molecule: NCCOCCOCCNC(=O)c1ccc(-c2c(F)cccc2F)cc1 [Compound 2, N-(2-(2-(2-aminoethoxy)ethoxy)ethyl)-2′,6′-difluorobiphenyl-4-carboxamide]
- displacement of probe 5 from TTR (FP signal) (TTR [5]): did not displace probe 5
- Kd (TTR [5]; [8]): > 50000 nM
- Kd (human wild type TTR; [9]): > 3290 nM
- Kd (human wild type TTR; read-out: ITC Kd): > 3290 nM

Molecule: Cc1n[nH]c(C)c1CCCOc1ccccc1F [Compound 7]
- TΔS binding entropy (human wild type TTR): -0.15 ± 0.002 kcal/mol
- ΔG binding free energy (human wild type TTR): -8.86 ± 0.17 kcal/mol
- ΔH binding enthalpy (human wild type TTR): -9.01 ± 0.13 kcal/mol
- Kd (human wild type TTR; [9]): 321 nM
- prevention of V122I TTR-induced cytotoxicity (in words) [2]: completely prevented TTR-induced cytotoxicity
- prevention of WT TTR-induced cytotoxicity (in words) [3]: completely prevented TTR-induced cytotoxicity
- inhibition of fibril formation (WT TTR): > 75%

Molecule: CN1C(=N)NC(=O)/C1=C/c1cc(Br)c(O)c(Br)c1 [Compound 14]
- TΔS binding entropy (human wild type TTR): 2.36 ± 0.08 kcal/mol
- ΔG binding free energy (human wild type TTR): -9.02 ± 0.19 kcal/mol
- ΔH binding enthalpy (human wild type TTR): -6.66 ± 0.22 kcal/mol
- Kd (human wild type TTR; [9]): 245 nM
- prevention of V122I TTR-induced cytotoxicity (in words) [2]: completely prevented TTR-induced cytotoxicity
- prevention of WT TTR-induced cytotoxicity (in words) [3]: completely prevented TTR-induced cytotoxicity
- inhibition of fibril formation (WT TTR): > 75%

Molecule: O=C(O)c1cccnc1Nc1cccc(C(F)(F)F)c1 [Niflumic acid, niflumic acid, reference compound]
- prevention of V122I TTR-induced cytotoxicity (in words) [2]: relatively poor inhibitor
- TTR aggregation inhibition (in words) (WT TTR): potent aggregation inhibitors

Molecule: O=C(c1cc(O)c(O)c([N+](=O)[O-])c1)c1ccccc1F [Ro 41-0960, reference compound]
- TΔS binding entropy (human wild type TTR): -4.3 ± 0.11 kcal/mol
- ΔG binding free energy (human wild type TTR): -9.18 ± 0.47 kcal/mol
- ΔH binding enthalpy (human wild type TTR): -13.5 ± 0.32 kcal/mol
- TΔS binding entropy (human wild type TTR; listed as Ro41-0960): -4.3 ± 0.11 kcal/mol
- ΔG binding free energy (human wild type TTR; listed as Ro41-0960): -9.18 ± 0.47 kcal/mol
- ΔH binding enthalpy (human wild type TTR; listed as Ro41-0960): -13.5 ± 0.32 kcal/mol
- Kd (human wild type TTR; [9]): 184 nM
- prevention of V122I TTR-induced cytotoxicity (in words) [2]: completely prevented TTR-induced cytotoxicity
- prevention of WT TTR-induced cytotoxicity (in words) [3]: completely prevented TTR-induced cytotoxicity
- TTR aggregation inhibition (in words) (WT TTR): potent aggregation inhibitors
- inhibition of fibril formation (WT TTR): > 75%

Molecule: Cc1n[nH]c(C)c1CCCOc1ccccc1F [drawing 61]
- IC50 (TTR [1]): 296 nM
- % fibril formation (WT TTR): 0.75 ± 1.06%

Molecule: O=C(c1cc(O)c(O)c([N+](=O)[O-])c1)c1ccccc1F [drawing 69]
- IC50 (TTR [1]): 755 nM
- % fibril formation (WT TTR): 0.32 ± 0.45%

Molecule: CN1C(=N)NC(=O)/C1=C/c1cc(Br)c(O)c(Br)c1 [drawing 72]
- IC50 (TTR [1]): 1150 nM
- % fibril formation (WT TTR): 0.00 ± 0.00%

Molecule: Fluorescein isothiocyanate [FITC]
- change in FP signal upon addition of TTR (TTR [7]): no change in the FP signal

Molecule: Ro26-4550
- IC50 (IL-2; read-out: IC50 (IL-2 antagonist)): 3000 to 6000 nM
- IC50 (IL-2; read-out: IC50 (Ro26-4550 bound to IL2)): 6000 nM

Continued, in another order:

- IC50 (TTR [1]): 10000 nM
- % fibril formation (WT TTR): 50.96 ± 1.98%
Molecule: O=C(NCc1cc(Br)cc(Br)c1O)c1ccccc1

- IC50 (TTR [1]): 10600 nM
- % fibril formation (WT TTR): 49.43 ± 4.26%
Molecule: CC(=O)Nc1ccc(Nc2nc3ccccc3nc2NS(=O)(=O)c2ccc(C)cc2)cc1

- IC50 (TTR [1]): 11000 nM
- % fibril formation (WT TTR): 47.39 ± 1.94%
Molecule: Cc1nc2c(C(=O)NCCC(C)C)cnn2c(O)c1Cc1ccccc1F

- apparent binding constant (Kapp) (TTR [5]; [8]): 231 nM
- TΔS binding entropy (human wild type TTR): -21.72 ± 0.26 kcal/mol
- ΔG binding free energy (human wild type TTR): -9.74 ± 0.10 kcal/mol
- ΔH binding enthalpy (human wild type TTR): -31.46 ± 0.37 kcal/mol
- Kd (human wild type TTR; [9]): 72.5 ± 4.7 nM
- Kd (human wild type TTR; read-out: ITC Kd): 72.4 nM
Molecule: O=C(O)c1ccc(-c2c(F)cccc2F)cc1 [Compound 1, reference compound]
- Kd (TTR [4]): 80 nM

- inhibition of fibril formation (WT TTR): > 75%
Molecule: Cc1n[nH]c(C)c1CCc1nc2c3ccccc3[nH]c(=S)n2n1 [Compound 15]
- prevention of V122I TTR-induced cytotoxicity (in words) [2]: completely prevented TTR-induced cytotoxicity
- prevention of WT TTR-induced cytotoxicity (in words) [3]: completely prevented TTR-induced cytotoxicity

- Kd (TTR [5]; [8]): 4660 nM
- TΔS binding entropy (human wild type TTR): 4.08 ± 0.37 kcal/mol
- ΔG binding free energy (human wild type TTR): -8.78 ± 0.59 kcal/mol
- ΔH binding enthalpy (human wild type TTR): -4.69 ± 0.42 kcal/mol
- TΔS binding entropy (human wild type TTR; listed as diclofenac): 4.08 ± 0.37 kcal/mol
- ΔG binding free energy (human wild type TTR; listed as diclofenac): -8.78 ± 0.59 kcal/mol
- ΔH binding enthalpy (human wild type TTR; listed as diclofenac): -4.69 ± 0.42 kcal/mol
- Kd (human wild type TTR; [9]): 370 nM
- Kd (human wild type TTR; read-out: ITC Kd): 370 nM
- Kd ([6]; 25° C., read-out: Kd (SPR, equilibrium / steady state analysis)): 124 ± 8.91 nM
- koff ([6]; SPR): 1.01 s⁻¹
- kon ([6]; SPR): 8.18e+06 M⁻¹ s⁻¹
- lower target residence time than 7 ([6]; SPR): ~40 ×
- inhibition of fibril formation (WT TTR): ~55%
Molecule: O=C(O)Cc1ccccc1Nc1c(Cl)cccc1Cl [Diclofenac, reference compound]

- IC50 (TTR [1]): 1310 nM
- % fibril formation (WT TTR): 0.00 ± 0.00%
Molecule: Cc1n[nH]c(C)c1CCc1nc2c3ccccc3[nH]c(=S)n2n1 [drawing 73]
